Consider 4 compounds from patent US9102919B2, “WNT pathway stimulation in reprogramming somatic cells with nuclear reprogramming factors” (Whitehead Institute for Biomedical Research, priority 2007, dated 2015).

Test [1] has as its system 26 other kinases. Conditions: cited from earlier work.
The target of test [2] is GSK3. Conditions: cited from earlier work.
Test [3] relates to MEFs over-expressing Oct4/Sox2/Klf4. The test is described as follows: G418-resistant colony formation in three-factor (Myc[-]) MEFs. It is filed as cell-based, mouse. As to conditions: 4 μM; three factors in Wnt3a-CM; G418 day 15; scored day 28. Here is the method: Cell culture, viral infections, induction of gene expression. Cells were cultured in 15% FBS, DMEM-KO, Penn/Step, Glutamine, Nonessential amino acids, β-ME, and LIF. Mouse embryo fibroblasts (MEFs) with an Oct4-IRES-eGFP construct (Meissner, A., et al., Nature Biotechnology, Direct reprogramming of genetically unmodified fibroblasts into pluripotent stem cells. Published online: 27 Aug. 2007|doi:10.1038/nbt1335) inserted into the endogenous Oct4 locus were infected with lentiviral vectors driving the doxycycline-inducible expression of Oct4, Sox2, Klf4 and c-Myc or only Oct4, Sox2, and Klf4. The vectors were based on the FUGW lentiviral vector backbone (Lois C, et al., Science 2002; 295: 868-872.), modified to include a tet-inducible promoter. Two days following infection cells were split and induced with doxycycline in the presence or absence of Wnt3a conditioned media (used in a 1:1 dilution with normal ES media with 2×LIF). These cells were monitored for GFP expression by flow cytometry at day 13 and again at day 20. […] Following at least one week of G418 selection, resistant colonies were examined and counted. […]
We hypothesized that stimulation of the stimulation of the Wnt pathway using soluble factors could modulate the efficiency of inducing pluripotency in somatic cells. […] GFP expression was analyzed by FACS on day 13 and 20. […]

Test [4] has as its system MEFs overexpressing Oct4/Sox2/Klf4/c-Myc. Description: G418-resistant colony formation in four-factor MEFs. It counts as cell-based, mouse. Here is the method:
Cell culture, viral infections, induction of gene expression. Cells were cultured in 15% FBS, DMEM-KO, Penn/Step, Glutamine, Nonessential amino acids, β-ME, and LIF. Mouse embryo fibroblasts (MEFs) with an Oct4-IRES-eGFP construct (Meissner, A., et al., Nature Biotechnology, Direct reprogramming of genetically unmodified fibroblasts into pluripotent stem cells. Published online: 27 Aug. 2007|doi:10.1038/nbt1335) inserted into the endogenous Oct4 locus were infected with lentiviral vectors driving the doxycycline-inducible expression of Oct4, Sox2, Klf4 and c-Myc or only Oct4, Sox2, and Klf4. The vectors were based on the FUGW lentiviral vector backbone (Lois C, et al., Science 2002; 295: 868-872.), modified to include a tet-inducible promoter. Two days following infection cells were split and induced with doxycycline in the presence or absence of Wnt3a conditioned media (used in a 1:1 dilution with normal ES media with 2×LIF). These cells were monitored for GFP expression by flow cytometry at day 13 and again at day 20. In parallel, MEFs with doxycycline-inducible Oct4 expressed from the collagen locus and Oct4-IRES-(neo resistance) inserted into the endogenous Oct4 locus were infected with lentiviruses driving the overexpression of either Sox2, Klf4 and c-Myc or Sox2 and Klf4. Again, two days following infection cells were split and induced with doxycycline in the presence or absence of Wnt3a conditioned media. […] Following at least one week of G418 selection, resistant colonies were examined and counted.
Conditioned medium. Wnt 3a conditioned media (CM) was collected from mouse L cells that had been transfected with Wnt3a cDNA (Shibamoto et al. 1998). These cells are available through ATCC(CRL-2647) along with the untransfected parent cell line (CRL-2648) to use for control conditioned medium. […]
We hypothesized that stimulation of the stimulation of the Wnt pathway using soluble factors could modulate the efficiency of inducing pluripotency in somatic cells. […] GFP expression was analyzed by FACS on day 13 and 20. […] Surviving colonies were counted on day 20. […]

For test [5], the system named is CK-II. Conditions: at >100 μM; cited from earlier work.
Test [6] concerns PKA. Conditions: at >100 μM; cited from earlier work.
Test [7] deals with PKC. As to conditions: at >100 μM; cited from earlier work.
Test [8] addresses Cdk-1/cyclin B (Homo sapiens, UniProt P06493). As to conditions: at >100 μM; cited from earlier work.
Test [9] concerns histone deacetylase. Conditions: cited from earlier work.

Cdk-1/cyclin B, sequence (P06493 whole entry, species assumed): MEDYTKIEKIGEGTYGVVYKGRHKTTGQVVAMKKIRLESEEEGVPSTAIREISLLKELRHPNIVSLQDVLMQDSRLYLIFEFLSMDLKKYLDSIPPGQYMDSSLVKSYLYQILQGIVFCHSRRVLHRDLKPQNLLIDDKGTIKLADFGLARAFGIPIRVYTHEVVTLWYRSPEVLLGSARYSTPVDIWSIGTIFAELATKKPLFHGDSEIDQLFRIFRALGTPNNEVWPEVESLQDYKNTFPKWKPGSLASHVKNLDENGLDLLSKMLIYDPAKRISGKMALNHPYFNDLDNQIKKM
Cdk-1/cyclin B, sequence (P14635 whole entry partner, species assumed): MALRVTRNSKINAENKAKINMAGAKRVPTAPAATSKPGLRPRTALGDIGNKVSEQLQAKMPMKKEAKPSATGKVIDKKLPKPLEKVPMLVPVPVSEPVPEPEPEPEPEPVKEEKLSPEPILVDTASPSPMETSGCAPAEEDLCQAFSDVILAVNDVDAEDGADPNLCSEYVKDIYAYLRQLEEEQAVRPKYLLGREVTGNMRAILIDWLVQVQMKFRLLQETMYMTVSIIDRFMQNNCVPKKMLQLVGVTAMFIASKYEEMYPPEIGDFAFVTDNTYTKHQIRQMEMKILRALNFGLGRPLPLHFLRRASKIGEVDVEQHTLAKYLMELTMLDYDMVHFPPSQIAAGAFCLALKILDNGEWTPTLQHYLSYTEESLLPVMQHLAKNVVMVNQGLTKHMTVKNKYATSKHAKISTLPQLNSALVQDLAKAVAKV

For the compound `COc1ccc(CNC(=O)Nc2ncc([N+](=O)[O-])s2)cc1` [AR-A014418, N-(4-Methoxybenzyl)-N′-(5-nitro-1,3-thiazol-2-yl)urea], the “inhibition of other kinases” value in [1] is “does not significantly inhibit”. Moreover, in test [2], the Ki (usually the dissociation constant of the complex between target and ligand, obtained from inhibition or displacement) is […].
For the compound `O=C1[C@H](Cc2ccc(O)cc2)N2C(=O)CCN(C(=O)NCc3ccccc3)[C@H]2CN1Cc1cccc2ccccc12` [ICG-001], the “effect on Wnt3a-CM promoted Myc[-] iPS formation” value in test [3] is recorded as “strongly inhibited”. Moreover, in [4] (4 μM, four factors in Wnt3a-CM, selection day 10, assessed day 20), the “effect on number of G418 colonies in c-Myc transduced cells” value is “only a subtle effect”. In [4] (25 μM, four factors (data not shown)), the iPS colonies entry is listed as “multiple Oct4/Sox2/Klf4/c-Myc iPS colonies were observed”. Also, the iPS colony numbers entry in test [4] (higher doses than 4 μM, four factors (data not shown)) is “further reduced”.
With `Cn1sc(=O)n(Cc2ccccc2)c1=O` [TDZD-8, 4-Benzyl-2-methyl-1,2,4-thiadiazolidine-3,5-dione], the inhibition entry in test [5], in test [6], in [7] and in test [8] was “does not inhibit” each time.
In the case of `CC(/C=C/C(=O)NO)=C\[C@@H](C)C(=O)c1ccc(N(C)C)cc1` [Trichostatin A, [R-(E,E)]-7-[4-(Dimethylamino)phenyl]-N-hydroxy-4,6-dimethyl-7-oxo-2,4-heptadienamide], in test [9], the “inhibition of histone deacetylase” value was “inhibits histone deacetylase at nanomolar concentrations”.
